Test results taken from patent publication US10221168B1, “Small-compound enhancers for functional O-mannosylation of alpha-dystroglycan, and uses thereof” (priority 2015, dated 2019).

tested on: FOG of α-DG on the cell surfaces; experiment: Cell-based HTS/HCS assay, IIH6 antibody as probe (EC1.5); settings: concentration of the compound required to enhance the FOG of α-DG by 50% over the controls; cell-based assays in vitro
Source text: Protein glycosylation is a multiple-step process that requires a large number of proteins in the secretory pathway of the cells. Thus we chose cell-based assay because our goal is to identify enhancer the FOG of α-DG on the cell surfaces. The assay system is HTS/HCS friendly and can adapt to various cell lines including myotubes as well as various readout methods including AlphaScreen, fluorescence density and HCS/fluorescence imaging. The standard operation protocol (SOP) for adhesion cells is described below and the FIG. 1 illustrates the assay process using myoblasts as the controls and screening cells and the IIH6 antibody as the probe. Other adhesion cells such CHO (Chinese hamster ovary) cell line can be implemented into this assay by simply removing the differentiation step.
Cell cultures: All cells are cultured at 37° C., 5% CO2, in appropriate media (F-12 for epithelial cells and DMEM for myoblasts) supplement with 10-20% fetal calf serum (FCS) and 1% antibiotics. […] The cells will be detached with trypsin EDTA and suspended in the cell culture media. The cells will be counted and seeded into the multiple-well plates as desired. Myotubes formation: When the myoblasts reach confluence, change the growth media to differential media (DEME with 2% horse serum) and incubate for 4-5 days.
The cells were fixed, permeablized, and then blocked with 10% BSA in PBS for 1 hour. […] After washing the cells with PBS for 2 times, the DAPI was used to stain the cells for 15 mins and wash 3 times with PBS. The images were captured with an inverted Olympus fluorescent microscope. For small compound localization experiment, the cells are incubated with the biotin conjugated compounds and then the cells were washed and incubated with streptavidin-Dye and then images will be captured to see the location of the compound-target-protein.
H, EC1.5<5 μM; M, EC1.5-20 μM; L, EC1.5 20-50 μM; VL, EC1.5>50 μM.

| Structure (SMILES) | Activity (EC1.5) |
| --- | --- |
| CCC(c1nnnn1Cc1cccs1)N1CCCN(c2nc3cc(N)cc(F)c3s2)CC1 (stereo not drawn) [Compound 71, 5-amino-7-fluoro-2-(4-(1-(1-(thiophen-2-ylmethyl)-1H-tetrazol-5-yl)propyl)1,4-diazepane-1-yl)benzothiazole] | H (EC1.5<5 μM) |
| CCC(c1nnnn1Cc1cccs1)N1CCN(c2nc3cccc(Br)c3s2)CC1 (stereo not drawn) [Compound 34, 7-bromo-2-(4-(1-(1-(thiophen-2-ylmethyl)-1H-tetrazol-5-yl)propyl)piperazin-1-yl)benzothiazole] | L (EC1.5 20-50 μM) |
| CCC(c1nnnn1Cc1cccs1)N1CCN(c2nc3cccc(F)c3s2)CC1 (stereo not drawn) [Compound 21, 7-fluoro-2-(4-(1-(1-(thiophen-2-ylmethyl)-1H-tetrazol-5-yl)propyl)piperazin-1-yl)benzothiazole] | H (EC1.5<5 μM) |
| CCC(c1nnnn1Cc1cccs1)C1CCN(c2nc3cc(N)cc(F)c3s2)C1 (stereo not drawn) [Compound 69, 5-amino-7-fluoro-2-(4-(1-(1-(thiophen-2-ylmethyl)-1H-tetrazol-5-yl)propyl)pyrrolidine-1-yl)benzothiazole] | H (EC1.5<5 μM) |
| CCC(c1nnnn1Cc1cccs1)N1CCN(c2nc3c(F)c(N)ccc3s2)CC1 (stereo not drawn) [Compound 47, 5-amino-4-fluoro-2-(4-(1-(1-(thiophen-2-ylmethyl)-1H-tetrazol-5-yl)propyl)piperazin-1-yl)benzothiazole] | H (EC1.5<5 μM) |
| CCC(c1nnnn1Cc1cccs1)N1CCN(c2nc3ccc(Cl)cc3s2)CC1 (stereo not drawn) [Compound 15, 6-chloro-2-(4-(1-(1-(thiophen-2-ylmethyl)-1H-tetrazol-5-yl)propyl)piperazin-1-yl)benzothiazole] | M (EC1.5-20 μM) |
| CCC(c1nnnn1Cc1cccs1)N1CCN(c2nc3ccccc3[nH]2)CC1 (stereo not drawn) [Compound 9, 2-(4-(1-(1-(thiophen-2-ylmethyl)-1H-tetrazol-5-yl)propyl)piperazin-1-yl)-1H-benzimidazole] | L (EC1.5 20-50 μM) |
| CCC(c1nnnn1Cc1cccs1)N1CCN(c2nc3c(F)cc(N)cc3s2)CC1 (stereo not drawn) [Compound 50, 6-amino-4-fluoro-2-(4-(1-(1-(thiophen-2-ylmethyl)-1H-tetrazol-5-yl)propyl)piperazin-1-yl)benzothiazole] | H (EC1.5<5 μM) |
| CCC(c1nnnn1Cc1cccs1)N1CCN(c2nc3ccc([N+](=O)[O-])cc3s2)CC1 (stereo not drawn) [Compound 10, 6-nitro-2-(4-(1-(1-(thiophen-2-ylmethyl)-1H-tetrazol-5-yl)propyl)piperazin-1-yl)benzothiazole] | VL (EC1.5>50 μM) |
| CCC(c1nnnn1Cc1ccco1)N1CCC(c2nc3ccccc3s2)CC1 (stereo not drawn) [Compound 4, 2-(1-(1-(1-(furan-2-ylmethyl)-1H-tetrazol-5-yl)propyl)piperidin-4-yl)benzothiazole] | M (EC1.5-20 μM) |
| CCC(c1nnnn1Cc1ccc(F)s1)N1CCN(c2nc3cc(N)cc(F)c3s2)CC1 (stereo not drawn) [Compound 57, 5-amino-7-fluoro-2-(4-(1-(1-(5-fluoro-thiophen-2-ylmethyl)-1H-tetrazol-5-yl)propyl)piperazin-1-yl)benzothiazole] | H (EC1.5<5 μM) |
| CCC(c1nnnn1CCc1ccc(F)s1)N1CCN(c2nc3cc(N)cc(F)c3s2)C(C)C1 (stereo not drawn) [Compound 60, 5-amino-7-fluoro-2-(4-(1-(1-(5-fluoro-thiophen-2-ylethyl)-1H-tetrazol-5-yl)propyl)-2-methyl-piperazin-1-yl)benzothiazole] | H (EC1.5<5 μM) |
| CCC(c1nnnn1CCc1cccs1)N1CCN(c2nc3cc(N)cc(F)c3s2)CC1[N+](=O)[O-] (stereo not drawn) [Compound 65, 5-amino-7-fluoro-2-(4-(1-(1-(thiophen-2-ylethyl)-1H-tetrazol-5-yl)propyl)-5-nitro-piperazin-1-yl)benzothiazole] | H (EC1.5<5 μM) |
| CCC(c1nnnn1Cc1cccs1)N1CCN(c2nc3ccc(F)cc3s2)CC1 (stereo not drawn) [Compound 13, 6-fluoro-2-(4-(1-(1-(thiophen-2-ylmethyl)-1H-tetrazol-5-yl)propyl)piperazin-1-yl)benzothiazole] | L (EC1.5 20-50 μM) |
| CCC(c1nnnn1Cc1cccs1)N1CCN(c2nc3cccc(C(=O)O)c3s2)CC1 (stereo not drawn) [Compound 36, 2-(4-(1-(1-(thiophen-2-ylmethyl)-1H-tetrazol-5-yl)propyl)piperazin-1-yl)benzothiazole-7-carboxylic acid] | L (EC1.5 20-50 μM) |
| CCC(c1nnnn1Cc1ccco1)N1CCN(c2nc3ccccc3s2)CC1 (stereo not drawn) [Compound 5, 2-(4-(1-(1-(furan-2-ylmethyl)-1H-tetrazol-5-yl)propyl)piperazin-1-yl)benzothiazole] | M (EC1.5-20 μM) |
| CCC(c1nnnn1Cc1cccs1)N1CCN(Cc2nc3ccccc3s2)CC1 (stereo not drawn) [Compound 43, 2-((4-(1-(1-(thiophen-2-ylmethyl)-1H-tetrazol-5-yl)propyl)piperazin-1-yl)methyl)benzothiazole] | L (EC1.5 20-50 μM) |
| CCC(c1nnnn1Cc1cccs1)N1CCN(c2nc3ccc(NC(=O)c4ccccc4Cl)cc3s2)CC1 (stereo not drawn) [Compound 18, 2-chloro-N-(2-(4-(1-(1-(thiophen-2-ylmethyl)-1H-tetrazol-5-yl)propyl)piperazin-1-yl)benzothiazol-6-yl)benzamide] | VL (EC1.5>50 μM) |
| CCC(c1nnnn1Cc1cccs1)N1CCN(c2nc3cc([N+](=O)[O-])ccc3s2)CC1 (stereo not drawn) [Compound 28, 5-nitro-2-(4-(1-(1-(thiophen-2-ylmethyl)-1H-tetrazol-5-yl)propyl)piperazin-1-yl)benzothiazole] | M (EC1.5-20 μM) |
| CCC(c1nnnn1Cc1cccs1)N1CCN(c2nc3c(F)cccc3s2)CC1 (stereo not drawn) [Compound 30, 4-fluoro-2-(4-(1-(1-(thiophen-2-ylmethyl)-1H-tetrazol-5-yl)propyl)piperazin-1-yl)benzothiazole] | H (EC1.5<5 μM) |
| CCC(c1nnnn1Cc1cccs1)N1CCN(c2nc3c(F)c(N)cc(F)c3s2)CC1 (stereo not drawn) [Compound 48, 5-amino-4,7-difluoro-2-(4-(1-(1-(thiophen-2-ylmethyl)-1H-tetrazol-5-yl)propyl)piperazin-1-yl)benzothiazole] | H (EC1.5<5 μM) |
| CCC(c1nnnn1CCc1cccs1)N1CCN(c2nc3cc(N)c(N)cc3s2)CC1 (stereo not drawn) [Compound 53, 5,6-diamino-2-(4-(1-(1-(thiophen-2-ylethyl)-1H-tetrazol-5-yl)propyl)piperazin-1-yl)benzothiazole] | H (EC1.5<5 μM) |
| CCC(c1nnnn1Cc1cccs1)N1CCN(c2nc3c(F)cc(N)c(F)c3s2)CC1 (stereo not drawn) [Compound 51, 6-amino-4,7-difluoro-2-(4-(1-(1-(thiophen-2-ylmethyl)-1H-tetrazol-5-yl)propyl)piperazin-1-yl)benzothiazole] | H (EC1.5<5 μM) |
| CCC(c1nnnn1Cc1cccs1)N1CCC(c2nc3ccccc3s2)CC1 (stereo not drawn) [Compound 8, 2-(1-(1-(1-(thiophen-2-ylmethyl)-1H-tetrazol-5-yl)propyl)piperidin-4-yl)benzothiazole] | M (EC1.5-20 μM) |
| CCC(c1nnnn1Cc1cccs1)N1CCN(c2nc3c(F)c(N)c(N)c(F)c3s2)CC1 (stereo not drawn) [Compound 52, 5,6-diamino-4,7-difluoro-2-(4-(1-(1-(thiophen-2-ylmethyl)-1H-tetrazol-5-yl)propyl)piperazin-1-yl)benzothiazole] | H (EC1.5<5 μM) |
| CCC(c1nnnn1Cc1cccs1)N1CCN(c2nc3cccc(O)c3s2)CC1 (stereo not drawn) [Compound 37, 7-hydroxyl-2-(4-(1-(1-(thiophen-2-ylmethyl)-1H-tetrazol-5-yl)propyl)piperazin-1-yl)benzothiazole] | L (EC1.5 20-50 μM) |
| CCC(c1nnnn1Cc1cccs1)N1CCN(c2nc3ccccc3o2)CC1 (stereo not drawn) [Compound 7, 2-(4-(1-(1-(thiophen-2-ylmethyl)-1H-tetrazol-5-yl)propyl)piperazin-1-yl)benzoxazole] | M (EC1.5-20 μM) |
| CCC(c1nnnn1Cc1cccs1)N1CCN(c2nc3ccccc3s2)CC1 (stereo not drawn) [Compound 6, 2-(4-(1-(1-(thiophen-2-ylmethyl)-1H-tetrazol-5-yl)propyl)piperazin-1-yl)benzothiazole] | M (EC1.5-20 μM) |
| CCC(c1nnnn1Cc1cccs1)N1CCN(c2nc3ccc(N)cc3s2)CC1 (stereo not drawn) [Compound 11, 6-amino-2-(4-(1-(1-(thiophen-2-ylmethyl)-1H-tetrazol-5-yl)propyl)piperazin-1-yl)benzothiazole] | M (EC1.5-20 μM) |
| CCC(c1nnnn1Cc1cccs1)N1CCN(c2nc3ccc(NC(=O)c4ccccc4C)cc3s2)CC1 (stereo not drawn) [Compound 19, 2-methyl-N-(2-(4-(1-(1-(thiophen-2-ylmethyl)-1H-tetrazol-5-yl)propyl)piperazin-1-yl)benzothiazol-6-yl)benzamide] | VL (EC1.5>50 μM) |
